Source: ChEMBL document CHEMBL1141714, “Peptidyl epoxides extended in the P' direction as cysteine protease inhibitors: effect on affinity and mechanism of inhibition” (Bioorg Med Chem, 2008)

Assays:
[1] = molecular target: T1, Papain (Carica papaya, UniProt P00784); experiment: Binding affinity to Carica papaya papain treated up to 2 hrs at 25 degC by Dixon plot
T1 sequence (P00784 whole entry): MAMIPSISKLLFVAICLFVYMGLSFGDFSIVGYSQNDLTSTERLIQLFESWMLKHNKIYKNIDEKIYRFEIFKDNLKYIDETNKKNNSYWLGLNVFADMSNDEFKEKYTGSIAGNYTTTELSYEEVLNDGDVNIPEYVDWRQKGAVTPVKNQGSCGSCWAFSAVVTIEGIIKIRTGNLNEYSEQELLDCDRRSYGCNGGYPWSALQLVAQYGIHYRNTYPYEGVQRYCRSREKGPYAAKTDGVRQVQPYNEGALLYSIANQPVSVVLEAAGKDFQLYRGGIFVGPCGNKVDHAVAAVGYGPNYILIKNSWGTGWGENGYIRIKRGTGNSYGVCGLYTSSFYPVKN

[2] = molecular target: Cathepsin B (Homo sapiens, UniProt P07858); experiment: Binding affinity to cathepsin B treated up to 2 hrs at 37degC by Dixon plot

Ki [1] [µM] | Ki [2] [µM] | SMILES
390 | 1020 | O=C(N[C@@H](Cc1ccccc1)C(=O)NCC1CO1)OCc1ccccc1 (stereo partly specified)
18 | 94 | COC(=O)[C@H](C)NC(=O)[C@H](C)NC(=O)C[C@H]1O[C@H]1CNC(=O)[C@H](Cc1ccccc1)NC(=O)OCc1ccccc1
73 | 244 | COC(=O)[C@H](C)NC(=O)[C@H](C)NC(=O)C[C@@H]1O[C@H]1CNC(=O)[C@H](Cc1ccccc1)NC(=O)OCc1ccccc1
